Like-named read-outs stand apart in the source and are kept apart here.
Legend:
[1] = biological target: T1, recombinant human PAI-1 (Homo sapiens, UniProt P05121); experiment: biochemical
Procedure: To this solution, 6 µl of 80 nM recombinant human PAI-1 (Molecular Innovations, Inc.) solution prepared with Tris buffer was added, and the plate was incubated for 5 minutes at room temperature. Furthermore, 30 µl of 800 IU/ml two-chain tPA (Activity Standard; American diagnostica, inc.) prepared with Tris buffer was added, and the mixed solution was incubated for 15 minutes at room temperature. Then, 30 µl of 400 µM fluorogenic substrate (Pyr-Gly-Arg-MCA; Peptide Institute, Inc.) for tPA prepared with Tris buffer was added and reacted for 30 minutes at room temperature.
50 mM Tris, 150 mM NaCl, 10 µg/ml BSA, 0.01 % Tween80 (SIGMA-ALDRICH Corporation)

[2] = biological target: T1, recombinant human PAI-1; experiment: Test Example 2: Human PAI-1 Inhibitory Activity (pH 7.4 HEPES buffer, 10 minutes incubation with two-chain tPA); assay type: biochemical; design: purchased Molecular Innovations, Inc; conditions: read-out: Inhibition Rate of PAI-1 Activity (%)
Procedure: 0.1 M HEPES, 0.1 M NaCl. 1 mM EDTA. 0.1 % Polyethylene glycol 8,000 (Hampton Research Corporation),
2 mM Dimethyldecylphoshine oxide [Apo-10] (Fluka Corporation)

[3] = biological target: T2, recombinant rat PAI-1 (Rattus norvegicus, UniProt P20961); experiment: biochemical; conditions: read-out: Inhibition Rate of PAI-1 Activity (%)
T2 sequence (P20961 24-402): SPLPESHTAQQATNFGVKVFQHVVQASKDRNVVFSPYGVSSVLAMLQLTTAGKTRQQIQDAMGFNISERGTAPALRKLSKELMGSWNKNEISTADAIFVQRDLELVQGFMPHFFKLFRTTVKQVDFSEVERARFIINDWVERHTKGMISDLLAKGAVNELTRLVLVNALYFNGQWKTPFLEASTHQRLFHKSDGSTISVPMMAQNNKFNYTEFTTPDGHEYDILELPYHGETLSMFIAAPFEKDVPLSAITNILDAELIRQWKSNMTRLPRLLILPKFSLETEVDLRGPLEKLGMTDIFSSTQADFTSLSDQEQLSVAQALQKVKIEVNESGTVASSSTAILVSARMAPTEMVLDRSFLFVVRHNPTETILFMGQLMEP

[4] = biological target: T1, recombinant human PAI-1; experiment: Test Example 4: Human PAI-1 Inhibitory Activity (amount of PAI-1 bound to plate-coated one-chain tPA, ELISA); assay type: biochemical; design: purchased Molecular Innovations, Inc; conditions: human PAI-1 bound to tPA, read-out: Inhibition Rate of PAI-1 Activity (%); for inhibition at 0.3 µM: Compound Concentration 0.3µM; for inhibition at 1 µM: Compound Concentration 1µM; for inhibition at 3 µM: Compound Concentration 3µM
Procedure: 100 µl of tPA solution, where one-chain recombinant tPA (hereinafter reffered to as tPA; American diagnostica, inc.) had been diluted with Buffer A to acheive a concentration of 10 µg/ml, was added to each well of a 96-well plate (Nunc Maxisorp), and the plate was incubated for one night at 4 °C to be coated with tPA. Then, after suction of tPA solution from the 96-well plate, the plate was rinsed successively with Buffer A and Buffer B. To Buffer B, solutions of the compound according to the present invention dissolved with DMSO (final DMSO concentration: 0.2 %) and recombinant human PAI-1 (Molecular Innovations, Inc.) were added. The mixtures were blended so that the final concentrations would be 0.1 to 3.0 µM and 50 ng/ml respectively, and were incubated for 15 minutes on ice. These mixed solutions were added to the rinsed 96-well plate at 100 µl/well, and incubated for 60 minutes at room temperature. To prepare a calibration curve, PAI-1 solutions without the compound according to the present invention (solutions where the final concentrations being 100, 50, 25, 12.5, 6.25, 3.13, or 1.56 ng/ml PAI-1) were added at 100 µl/well, and the plate was incubated for 60 minutes at room temperature, as standard.
After incubation, the reaction mixture was removed by suction, and each well was rinsed with Wash Buffer. Next, anti-human PAI-1 monoclonal antibody (PROGEN Inc.) diluted with Buffer C to be 3.0 µg/ml was added to the 96-well plate at 100 µl/well, and the plate was incubated for 1 hour at room temperature. After rinsing each well with Wash Buffer, alkaline phosphatase-labeled goat anti-mouse IgG (H+L) (Jackson ImmunoResearch, Inc.) diluted with Buffer D to be 0.12 µg/ml was added at 100 µl/well, and the plate was incubated for 1 hour at room temperature. After rinsing each well with Wash Buffer, 1.0 mg/ml p-Nitrophenyl Phosphate (SIGMA) was added to the 96-well plate at 100 µl/well to start the reaction. After 30 to 60 minutes, 25 µl of 0.5 N NaOH was added to stop the reaction, and the absorbance was measured at 405 nm using a multiplate reader (GENios; TECAN G.M.B.H.).
Based on the calibration curve prepared from the standard wells, amounts of PAI-1 bound to tPA in the wells that had been treated with the compound according to the present invention were calculated, and the PAI-1 inhibition rates by the compounds according to the present invention were obtained by the following equation. [API-1InhibitionRate(%)] = [1-(amountofPAI-1boundtotPaonthewellbytreatmentwiththecompondaccordingtothepresentinvention)/(amountofPAI-1boundtotPAonthewellbytreatmentwithPAI-1solutionnotincledingthecompondaccordingtotheinvention(solution having the final concentration of 50 nb/ml PAI-1)] × 100 [formula] • <Composition of Buffer A> 0.1 M Tris-HCl, 150 mM NaCl, pH 7.7 • <Composition of Buffer B> 50 mM sodium phosphate, 0.1 M NaCl, 1 mM EDTA, pH 6.6 • <Composition of Buffer C> 50 mM sodium phosphate, 100 mM NaCl, pH 7.4 • <Composition of Buffer D> 0.01 M Tris-HCl, 0.25 M NaCl, pH 8.0 • <Compositon of Wash Buffer> 0.05 % Tween 20, 0.1 % BSA in Buffer A • <Composition of p-Nitrophenyl Phosphate solution> 1 M Diethanolamine 0.5 mM MgCl2, p-Nitrophenyl phosphate, pH 9.8

[5] = read-out: Inhibition Rate of PAI-1 Activity (%)
[6] = read-out: Inhibition Rate of PAI-1 Activity (%), Compound Concentration 5µM
[7] = read-out: Inhibition Rate of PAI-1 Activity (%), Compound Concentration 10µM
[8] = read-out: Inhibition Rate of PAI-1 Activity (%), Compound Concentration 25µM

T1 sequence (P05121 24-402): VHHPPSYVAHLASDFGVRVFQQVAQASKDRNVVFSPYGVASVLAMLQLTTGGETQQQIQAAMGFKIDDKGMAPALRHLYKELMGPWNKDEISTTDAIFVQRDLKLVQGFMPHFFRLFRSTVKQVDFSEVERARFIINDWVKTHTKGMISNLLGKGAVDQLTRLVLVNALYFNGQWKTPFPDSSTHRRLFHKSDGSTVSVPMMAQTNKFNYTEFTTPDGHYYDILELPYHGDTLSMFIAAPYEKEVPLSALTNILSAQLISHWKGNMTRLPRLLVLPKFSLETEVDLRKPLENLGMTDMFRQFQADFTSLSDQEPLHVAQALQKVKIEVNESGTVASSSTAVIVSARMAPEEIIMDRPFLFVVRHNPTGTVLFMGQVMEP

Compound | inhibition at 5 µM [1, 5] | inhibition at 10 µM [1, 5] | inhibition at 25 µM [1, 5] | inhibition at 0.1 µM [2] | inhibition at 0.3 µM [2] | inhibition at 1 µM [2] | inhibition at 3 µM [2] | inhibition at 0.3 µM [3] | inhibition at 1 µM [3] | inhibition at 3 µM [3] | inhibition at 10 µM [3] | inhibition at 0.3 µM [4] | inhibition at 1 µM [4] | inhibition at 3 µM [4] | inhibition at 5 µM [1, 6] | inhibition at 10 µM [1, 7] | inhibition at 25 µM [1, 8]
CC(C)(C)c1ccc(Oc2cc(Oc3ccc(OC(F)(F)F)cc3)ccc2CCC(=O)O)cc1 [Compound 90] | 42% | 83% | 96% | 4% | 6% | 22% | 97% | 0% | 0% | 77% | 90% | 2% | 9% | 70% | – | – | –
CC(C)(C)c1ccc(Oc2ccc(Oc3ccc(OC(F)(F)F)cc3)cc2CCC(=O)O)cc1 [Compound 100] | 64% | 91% | 98% | 0% | 2% | 29% | 93% | 0% | 7% | 70% | > 99% | 7% | 37% | 79% | – | – | –
O=C(O)CCc1cc(-c2ccc(OC(F)(F)F)cc2)ccc1OCCCCc1ccccc1 [Compound 102] | – | – | – | 0% | 7% | 28% | 94% | 0% | 12% | 55% | 93% | 0% | 0% | 83% | 43% | 74% | 97%
CC(C)(C)c1ccc(COc2ccc(-c3ccc(OC(F)(F)F)cc3)cc2OCC(=O)O)cc1 [Compound 105] | – | – | – | 2% | 3% | 44% | 99% | 0% | 6% | 74% | 90% | 7% | 4% | 33% | 38% | 76% | > 99%
CC(C)(Oc1cc(-c2ccc(OC(F)(F)F)cc2)ccc1OCc1ccc(C(C)(C)C)cc1)C(=O)O [Compound 106] | – | – | – | 0% | 8% | 39% | 97% | 0% | 16% | 85% | > 99% | 0% | 7% | 17% | 50% | 85% | 93%
CC(C)(C)c1ccc(Oc2cc(-c3ccc(OC(F)(F)F)cc3)ccc2OCC(=O)O)cc1 [Compound 112] | 34% | 82% | 95% | 0% | 19% | 56% | > 99% | 0% | 14% | 75% | 96% | 0% | 6% | 36% | – | – | –
CC(C)(Oc1cccc(-c2ccc(OC(F)(F)F)cc2)c1OCc1ccc(C(C)(C)C)cc1)C(=O)O [Compound 118] | – | – | – | 0% | 6% | 49% | > 99% | 0% | 16% | 77% | 93% | 0% | 4% | 46% | 56% | 82% | 93%
CC(C)(C)c1ccc(CN(C(=O)C(=O)O)c2cccc(-c3ccc(OC(F)(F)F)cc3)c2)cc1 [Compound 130] | – | – | – | 0% | 2% | 18% | 84% | 1% | 16% | 50% | > 99% | 1% | 3% | 15% | 82% | 96% | –
CC(C)(C)c1ccc(CN(C(=O)C(=O)O)c2cc(-c3ccc(OC(F)(F)F)cc3)cc(C(F)(F)F)c2)cc1 [Compound 139] | – | – | – | 0% | 3% | 30% | 97% | 0% | 22% | 85% | 88% | 6% | 10% | 32% | 25% | 59% | 66%
CC(C)(C)c1ccc(CN(C(=O)C(=O)O)c2ccc(Oc3ccc(OC(F)(F)F)cc3)cc2C(F)(F)F)cc1 [Compound 174] | – | – | – | 0% | 0% | 26% | 96% | 0% | 11% | 76% | 94% | 0% | 7% | 32% | 61% | 92% | 91%
